Results reported in the supplement of paper PMC10790783.

System: MRC5-hT fibroblasts expressing HCMV UL38 (glucose-free medium)
Assay: rescue of cell number (AUC of dose-response) relative to untreated glucose-free control; higher = stronger protection from glucose-starvation-induced cell death
Details: glucose: 0 (glucose-free DMEM); 96 h; dose range 0.001-20, 10-point curve µM
Protocol: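 MRC5-hT fibroblasts stably expressing HCMV UL38 were seeded in 384-well plates, serum-starved for 24 h, switched to glucose-free DMEM, and pin-transferred with a metabolism-focused compound library as 10-point dose curves (1 nM to 20 µM; n=2). Nuclei were counted by Hoechst imaging 96 h after glucose withdrawal.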

Structure (SMILES)	rescue of cell number [%]
O=c1cnn([C@@H]2O[C@H](CO)[C@@H](O)[C@H]2O)c(=O)[nH]1 [6_Azauridine]	-34.1
CC1(C)C(N(O)C(=O)Nc2ccc(Cl)cc2)N(c2ccc(Cl)cc2)C(=O)N1CC(=O)NN=CC=Cc1ccc([N+](=O)[O-])o1 (configuration not stated) [Eeyarestatin_I]	11.4
